According to patent US20160220709A1, “PHOTOACOUSTIC IMAGING CONTRAST AGENT COMPOSITION” (Agency for Science, Technology and Research, priority 2013, published 2016):

Tests used:
[1] = In vivo PA imaging of rat cortical vasculature (superior sagittal sinus); settings: 200 μL of 30 μM, retro-orbital injection, 20 min after administration, 410 nm
Description: Cortical vasculature of the rat was in vivo imaged at 32×61 μm resolution, with a designed 50-MHz dark-field confocal PA microscopy system (FIG. 4); the PA signal at λ410 was acquired. The SSS is the largest vein in the rodent brain cortex, and a selected section of it is the region-of-interest (ROI) in this study (FIG. 5B). There is strong clinical evidence that controlling cerebral venous blood flow is critically important for patients with severe traumatic brain injury as well as for patients undergoing cardiac surgery. Then, the SSS is a large central cerebral vein at cortical layer, and collects blood flow from both hemispheres before emptying into the internal jugular vein. That is, accurate measurements of blood flow changes in the SSS are thus very important.
Six male Wistar rats (NUS-CARE, Singapore), weighing 250-300 grams, were used. Animal experiments were conducted in accordance with guidelines from Institutional Animal Care and Use Committee (IACUC) at the National University of Singapore. The rats were fasted for 24 h prior to the imaging experiments, but were given water ad libitum. They were anesthetized with isoflurane (2 to 3% in 100% O2), mounted in a dorsal position over a custom-made acrylic stereotaxic holder, and the skin and muscle on the skull were removed to expose the bregma landmark. […]

Water solubility = assay type: physicochemical
[2] = test system: oral squamous cell carcinoma (OSCC) cells; experiment: Cell viability study (MTS / CCK8 cytotoxicity assay); assay type: cell-based; settings: 0.01-30 μM, 24 h incubation
Method: Five thousand oral squamous cell carcinoma (OSCC) cells were seeded in a 96-well plate for 24 h before a solution of 2 in DMEM ([…]) with the indicated concentrations (0.01-30 μM) was introduced into each well. After incubation for 24 h, 10 μL of CCK8 (cell counting kit-8, Sigma-Aldrich) was added to each well. Cell absorbance was measured with a SpectraMax 384 Plus spectral analyser after 4 h, with 450 nm excitation.

[3] = In vitro photoacoustic (PA) signal measurement in polyethylene tubing, PA microscopy at 410 nm
Description: The microscopy system consists of laser pulse generation and delivery, PA signal reception, and image reconstruction and display. Laser pulses, 4 ns wide, were generated at a frequency of 10 Hz by using an optical parametric oscillator (Surlite OPO Plus, Continuum, USA). The laser was pumped by a frequency-tripled Nd:YAG Q-switched laser (Surlite II-10, Continuum, USA). The incident wavelength was set at 410 nm. The custom-made 50-MHz ultrasonic transducer (Acoustic Sensor, Taiwan) has a −6 dB fractional bandwidth of 57.5%, focal length of 9 mm, and a 6 mm active element, offering an axial resolution of 32 μm and a lateral resolution of 61 μm.
Laser energy was delivered using a 1-mm multimodal fiber. The fiber tip was coaxially aligned with a convex lens, an axicon, a plexiglass mirror, and an ultrasonic transducer on an optical bench, forming dark-field illumination that was confocal with the focal point of the ultrasonic transducer. The incident energy density on the sample surface was well within American National Standards Institute (ANSI) safety limits. The transducer was immersed in an acrylic water tank during the imaging process, and the hole at the bottom of the tank was sealed with a piece of […] thick polyethylene film. A thin layer of ultrasonic gel was applied as a PA conductive medium, which was then attached to the thin polyethylene film to ensure reliable coupling of the PA waves with the water tank. The PA signals received by the ultrasonic transducer were pre-amplified by a low-noise amplifier (noise FIG. 1.2 dB, gain 55 dB, AU-3A-0110, USA), cascaded to an ultrasonic receiver (5073 PR, Olympus, USA) and then digitized and sampled by a computer-based 14-bit analog to digital (A/D) card (CompuScope 14220, GaGe, USA) at a 200-MHz sampling rate for data storage.
Fluctuations in the laser energy were monitored with a photodiode (DET36A/M, Thorlabs, USA). The recorded photodiode signals were measured prior to the experiment to compensate for PA signal variations caused by laser-energy instability. The achievable penetration depth of the current PA microscopy system was 3 mm with approximately 18-dB SNR, where SNR is defined as the ratio of the signal peak value to the root-mean-square value of the noise. Three scan types can be provided by this system: A-line (i.e., one-dimensional images where the axis represents the imaging depth), B-scan (i.e., two-dimensional images where one axis is the lateral scanning distance and the other is the imaging depth), and C-scan (i.e., projection images from the three-dimensional images). The amplitude of the envelope-detected PA signals was used in the subsequent functional imaging analysis.
For both in vivo and in vitro imaging, the laser was pulsed with a pulse repetition rate of 10 Hz and coupled by a lens to an optical fiber to illuminate the ROI. A window at the bottom of the water container was sealed with an optically and ultrasonically transparent, disposable polyethylene film. After a commercially available ultrasound gel was applied to the brain for acoustic coupling, the brain was placed between the water container and the custom-made stereotaxic apparatus for imaging.
All the PA images in this study were acquired at 410 nm without any need for signal averaging, and yet the contrast quality of the PA images is high. […]

| Molecule | clarity of brain vasculature in PA B-scan image compared to intrinsic optical contrast [1] | water solubility (Water solubility) | effect on viability of cells (cytotoxicity) [2] | concentration down to which PA signal of aqueous solution is adequate ([3]; aqueous solution, B-scan) [µM] | PA signal relative to that for single-walled carbon nanotubes (SWNT) [3] [times higher] | PA signal relative to that for 1a ([3]; water/ethanol (60:40, v/v)) | PA signal relative to that for 1b ([3]; water/ethanol (60:40, v/v)) [times higher] | PA signal, rank among the three carbonyl clusters ([3]; water/ethanol (60:40, v/v)) |
| --- | --- | --- | --- | --- | --- | --- | --- | --- |
| Os3(CO)10(μ-H)μ-S(CH2)2COO^−Na^+ [compound 2] | greater clarity | water-soluble | little effect on the viability of cells | 2.5 | – | – | – | – |
| [C-]#[O+].[C-]#[O+].[C-]#[O+].[C-]#[O+].[C-]#[O+].[C-]#[O+].[C-]#[O+].[C-]#[O+].[C-]#[O+].[C-]#[O+].[C-]#[O+].[C-]#[O+].[Os].[Os].[Os] [1c, Os3(CO)12] | – | low water solubility | – | – | 2.4 | about 1.5 times higher | ~1.2 | highest PA signal |
